Laboratory results from article PMC7547863 (Biochemistry, 2020).
No end group written: not given here.

Experiments:
[1] = tested on: human dermal microvascular endothelial cells (HDMEC); experiment: HDMEC cytotoxicity assay; type: cell-based; details: concentration at 50% cytotoxicity
[2] = tested on: human embryonic kidney cells (HEK 293); experiment: HEK 293 cytotoxicity assay; type: cell-based; details: concentration at 50% cytotoxicity, CO-ADD
C. albicans ATCC90028 = experiment: CO-ADD antifungal screening, MIC; type: cell-based, Candida albicans; details: yeast nitrogen base, 2.5 × 10^3 CFU/mL, 35 °C 24 h, OD530, n=2
S. aureus = details: ref [58]; cited from earlier work
E. coli = details: ref [58]; cited from earlier work

Substance | HDMEC (CC50) [1] | HEK293 (CC50) [2] | MIC C. albicans ATCC90028* (C. albicans ATCC90028) | MIC against S. aureus (S. aureus) | MIC against E. coli (E. coli)
KLLKLLKKLVGALG-NH2 [compound 15] | 25 µM | 12 µM | 21 µM | – | –
KLLKLVKKVVGALG-NH2 [compound 13] | 533 µM | – | >22 µM | – | –
KLLKLLKKLLGALG-NH2 [compound 16] | 8 µM | 7 µM | 11 µM | – | –
GLFDIVKKVVGALK-NH2 [compound 9] | 103 µM | – | >22 µM | – | –
KLLKLLKKLLKALG-NH2 [compound 17] | 4 µM | >20 µM | 20 µM | – | –
GLFDIVKKVVKLLK-NH2 [compound 7] | 236 µM | – | >20 µM | – | –
GLFDIVKKVVGLLK-NH2 [compound 8] | 28 µM | – | >21 µM | – | –
GLFDIVKKVVGALG-NH2 [Au2.2d2, reference compound] | 64 µM | – | >23 µM | – | –
KLLKLLKKLLKLLK-NH2 [Klk14, reference compound] | 3 µM | 10 µM | 9 µM | – | –
WWKRWKKLRRIFLML | – | – | – | 4 µM | 4 µM
GLFKLLKKLLKLLK-NH2 [compound 2] | 2 µM | >19 µM | >20 µM | – | –
